In US5770595A, “Oxime substituted therapeutic compounds” (Cell Therapeutics, Inc., priority 1994, dated 1998):

Assays:
LPAAT = assay: formation of remodeled PA at LPAAT; format: biochemical
Source text: Even in the presence of PTX, cells continue to form PA through the action of PLD, and DAG is also formed through the action of phospholipase C on PC and PI. The latter pathway are not inhibited by the inventive compounds or PTX. In PTX-treated cells, DAG derived from remodeled and PLA-generated PA is diminished (e.g., 1,2-sn-dioleoyl DAG, 1-alkyl, 2-linoleoyl DAG and 1-alkyl, 2-docosahexaneolyl DAG). Therefore, the inventive compounds and PTX inhibit the formation of only a certain species of PA and DAG by selectively inhibiting a specific second messenger pathway that is only activated in cells by noxious stimuli, but is not used to signal normal cellular housekeeping functions.
(§1) One in vitro assay measures inhibition of the relevant enzymes lysophosphatidic acid acyltransferase (LPAAT) and phosphatidic acid phosphoryl hydrolase (PAPH). […] It is important to note that the assay method permits discrimination between various forms of PA and DAG so that those relevant to the pathway affected by the (R) or (S) compounds of the invention can be measured directly. […] Thus, the relevant unsaturated (non-arachidonic) PA and DAG subspecies may be detected. […]

L929 cells = assay: TNF-α-mediated cytotoxicity in L929 cells; format: cell-based, murine; conditions: human TNF-α 300 pg/ml; FIG. 9
Method: An inventive compound can be assayed for activity protecting TNF-mediated cytotoxicity. In this assay, L929 murine fibroblast cells (10^4 cells per well) are incubated with either compounds at varying doses and media control for two hrs. […] The cells plus (or minus) drug plus TNF were incubated for 40 hrs at 37° C. The media is removed and replaced with fresh media containing 2% serum and 10 μg/ml of BCECF fluorescent dye and incubated for 30 min. The fluorescent dye-containing media is removed and replaced with PBS (phosphate buffered saline) and each well was assayed for fluorescence.
This assay is a model for septic shock. L929 cells (10^5) were treated with human TNF-α at 300 pg/ml in RPMI media containing 10% fetal calf serum with or without compound no. One day later, the cells were stained for viability using the fluorescent dye BCECF and fluorescence of the samples was analyzed using a Milipore plate reader.

[1] = system: polymorphonuclear leukocytes; conditions: cited from earlier work
[2] = system: tumor necrosis factor (TNF); conditions: normal volunteers; cited from earlier work
[3] = system: ras transformation in NIH/3T3 cells; assay: generation of DAG and PA in ras-transformed NIH/3T3 cells; format: cell-based; conditions: pretreatment of cells; 4-12 hours
Source text: For example, activating ras mutations result in increased generation of DAG upon stimulation with mitogens, although the sources of DAG differ between experimental systems. In nontransformed renal mesangial cells, IL-1β stimulation increased PLA2 and LPAAT activation, resulting in generation of sn-2 unsaturated PA and subsequent hydrolysis to DAG by phosphatidate phosphohydrolase. The ras transformation in NIH/3T3 cells upregulates serum-stimulated generation of DAG and PA. Particular species of DAG that is stimulated by serum is dioleoyl and of PA are dilinoleoyl and dioleoyl. […] The inhibition occurs either through suppressing the generation of PA de novo from lysoPA, or through inhibition of one or both arms of the Lands cycle. […] Therefore, the ras transformation mediates an upregulation of PA through indirect stimulation of PLA2 and/or LPAAT activity.

[4] = system: ras-transformed NIH/3T3 cells
PAPH = assay: inhibition of PAPH / DAG formation in specific activation pathway; format: biochemical, human; conditions: specific activation pathway that does not involve PI
Source text: The compounds and pharmaceutical compositions of the invention include inhibitors of subspecies of LPAAT and PAPH enzymes with substrate specificity for intermediates with 1,2-diunsaturated and 1-alkyl, 2-unsaturated subspecies. One representative example of such an inhibitor (although not within the genus of inventive compounds) is PTX. […] It should be emphasized that the compounds of the invention affect that subset of PAPH and LPAAT that relates to substrates with unsaturated fatty acids other than arachidonate in the sn-2 position, not the housekeeping forms of these enzymes that serve the PI pathway.
as §1

Question: Which “DAG derived from remodeled and PLA-generated PA” value (LPAAT; PTX-treated cells) does the source give for `CC(=O)CCCCn1c(=O)c2c(ncn2C)n(C)c1=O` [PTX, 1-(5-oxohexyl)-3,7-dimethylxanthine] here?
Answer: The value was “diminished”.

Question: What about the “formation of remodeled PA” value (LPAAT; in vitro, high PTX concentrations) of the same compound?
Answer: The value was “blocks formation of remodeled PA through the PA/DAG pathway at high PTX concentrations”.

Question: And the “protection of L929 cells from TNF-induced cytotoxicity” value (L929 cells)?
Answer: Its value is “inhibited TNF-induced cytotoxicity in a dose dependent manner”.

Question: What about the “inhibition of cytokine activity to affect chemotaxis” value ([1]; U.S. Pat. Nos. 4,965,271 and 5,096,906) of the same compound?
Answer: Its value is “inhibit activity of certain cytokines to affect chemotaxis”.

Question: And the “stimulation of chemotaxis in polymorphonuclear leukocytes” value ([1]; in response to a stimulator of chemotaxis, U.S. Pat. No. 4,636,507)?
Answer: Its value is “stimulate chemotaxis in polymorphonuclear leukocytes”.

Question: What about the TNF levels [2] of the same compound?
Answer: The TNF levels was “TNF levels were higher among PTX recipients”.

Question: And the “generation of phospholipid second messengers (DAG, PA)” value [3]?
Answer: The value was “blocks generation of these phospholipid second messengers”.

Question: And the “inhibition of ras-transformed NIH/3T3 cells relative to parental cells” value [4]?
Answer: Its value is “inhibits ras-transformed NIH/3T3 cells more than parental cells”.

Question: What about the “reversibility / cytotoxicity of inhibition” value [4] of the same compound?
Answer: Its value is “reversible and is not associated with significant cytotoxicity”.

Question: What about the “blocking of PAPH” value (PAPH) of the same compound?
Answer: The value was “blocks PAPH in a specific activation pathway”.
